Data reported in ChEMBL document CHEMBL4342426, “Structure-activity relationship of 4-azaindole-2-piperidine derivatives as agents against Trypanosoma cruzi” (Bioorg Med Chem Lett, 2020).

What was measured:
[1] = cells; settings: Homo sapiens, MRC-5 SV2, 72 h
Description: (§1) Cytotoxicity against human MRC5 SV2 cells assessed as reduction in cell viability incubated for 3 days by fluorimetry

[2] = tested on: Macrophage; experiment: cells; settings: Mus musculus, 72 h
Description: (§2) Cytotoxicity against mouse peritoneal Macrophage cells assessed as reduction in cell viability incubated for 3 days by fluorimetry

[3] = in vitro; settings: human, MRC5 SV2 cells
Description: as §1

[4] = in vitro; settings: human, liver microsomes
Description: Metabolic stability in human liver microsomes assessed as intrinsic clearance at 0.5 uM incubated for 30 mins by LC-MS/MS analysis

[5] = in vitro; settings: mouse, liver microsomes
Description: Metabolic stability in mouse liver microsomes assessed as intrinsic clearance at 0.5 uM incubated for 30 mins by LC-MS/MS analysis

[6] = physchem; settings: buffer, pH 7.4
Description: Lipophilicity, logD of compound at pH 7.4 by HPLC analysis

[7] = in vitro; settings: mouse, peritoneal macrophages
Description: as §2

[8] = in vitro; settings: PAMPA
Description: Effective permeability of compound by PAMPA assay

[9] = in vitro; settings: mouse, liver microsomes; remark: listed apart in the source
Description: Metabolic stability in mouse liver microsomes assessed as fraction unbound at 0.5 uM incubated for 30 mins by LC-MS/MS analysis

[10] = tested on: Trypanosoma cruzi; experiment: microbe, parasite or virus in culture; settings: Tulahuen CL2, MRC-5 SV2, 168 h
Description: Antitrypanosomal activity against Trypanosoma cruzi Tulahuen CL2 amastigotes infected in human MRC5 SV2 cells incubated for 7 days by chlorophenol red beta-D-galactopyranoside substrate based spectrophotometric assay

[11] = tested on: Trypanosoma brucei; experiment: microbe, parasite or virus in culture; settings: Squib 427, 72 h
Description: Antitrypanosomal activity against Trypanosoma brucei Squib 427 assessed as reduction in parasite growth incubated for 72 hrs by resazurin dye based fluorimetric analysis

[12] = tested on: Trypanosoma brucei rhodesiense; experiment: microbe, parasite or virus in culture; settings: STIB900, 72 h
Description: Antiprotozoal activity against Trypanosoma brucei rhodesiense STIB900 trypomastigotes incubated for 72 hrs by resazurin dye based fluorimetric analysis

[13] = tested on: Leishmania infantum; experiment: microbe, parasite or virus in culture; settings: for IC50: MHOM/MA(BE)/67/ITMAP263, 120 h; for IC90: MHOM/MA(BE)/67/ITMAP263, in Mus musculus, 120 h
Description: Antileishmanial activity against amastigote stage of Leishmania infantum MHOM/MA(BE)/67/ITMAP263 infected in mouse peritoneal macrophage assessed as parasite growth inhibition incubated for 5 days by Giemsa staining based assay

[14] = in vitro; settings: human, MRC5 SV2 cells; remark: listed apart in the source
Description: Selectivity index, ratio of IC50 for human MRC5 SV2 cells to IC50 for Trypanosoma cruzi Tulahuen CL2 amastigotes infected in human MRC5 SV2 cells

| Compound | IC90 at 72 h [3] [µM] | CLint scaled at 0.5 h, 0.5 µM [4] [mL/min/kg] | microsomal CLint at 0.5 h, 0.5 µM [4] [µL/min/mg] | CLint scaled at 0.5 h, 0.5 µM [5] [mL/min/kg] | microsomal CLint at 0.5 h, 0.5 µM [5] [µL/min/mg] | logD [6] | IC90 at 72 h [7] [µM] | Papp [8] [×10⁻⁶ cm/s] | fraction unbound at 0.5 h, 0.5 µM [9] | IC50 [11] [µM] | IC90 [11] [µM] | IC50 [12] [µM] | IC90 [12] [µM] | IC50 [13] [µM] | IC90 [13] [µM] | IC50 [1] [µM] | IC50 [2] [µM] | IC50 [10] [µM] | IC90 [10] [µM] | selectivity ratio [14] |
| --- | --- | --- | --- | --- | --- | --- | --- | --- | --- | --- | --- | --- | --- | --- | --- | --- | --- | --- | --- | --- |
| Cc1nc(C)c(C(=O)N2CCCC(c3cc4ncccc4[nH]3)C2)s1 (stereo not drawn) | 64 | 29.5 | 26.2 | 774 | 233 | 2.3 | 64 | 2.88 | 0.96 | 64 | 64 | 64 | 64 | 64 | 64 | 64 | 64 | 64 | 64 | – |
| O=C1c2ccccc2CN1CCc1cc2ncccc2[nH]1 | 64 | 119 | 69.1 | 1090 | 213 | 2.19 | 64 | 0.504 | 0.626 | 64 | 64 | 64 | 64 | 64 | 64 | 64 | 64 | 64 | 64 | – |
| COc1cc(C(=O)N2CCCC(c3cc4ncccc4[nH]3)C2)on1 (stereo not drawn) | 64 | 57.8 | 36.9 | 601 | 129 | 2.44 | 64 | 6.36 | 0.688 | 64 | 64 | 64 | 64 | 64 | 64 | 64 | 64 | 8.1 | 15.2 | 7.9 |
| Nc1cc(C2CCCN(C(=O)c3ccccc3)C2)[nH]n1 (stereo not drawn) | 64 | < 36.7 | < 23 | < 108 | < 23 | 1.09 | 64 | 1.42 | 0.684 | 64 | 64 | 64 | 64 | 64 | 64 | 64 | 64 | 64 | 64 | – |
| Nc1cc(C2CCCN(C(=O)c3cc(C(F)(F)F)no3)C2)[nH]n1 (stereo not drawn) | 64 | < 26.7 | < 23 | 175 | 54.3 | 1.77 | 64 | 3.76 | 0.991 | 64 | 64 | 64 | 64 | 64 | 64 | 64 | 64 | 64 | 64 | – |
| O=C(c1ccccc1)N1CCCC(c2cn3cccnc3n2)C1 (stereo not drawn) | 64 | < 31.7 | < 23 | 338 | 127 | 1.71 | 64 | 2.75 | 0.805 | 64 | 64 | 64 | 64 | 64 | 64 | 64 | 64 | 64 | 64 | – |
| CC(C)(C)OC(=O)N1CCCC(c2cn3cccnc3n2)C1 (stereo not drawn) | 64 | 49 | 38 | 3290 | 861 | 2.58 | 64 | 7.69 | 0.836 | 64 | 64 | 64 | 64 | 64 | 64 | 64 | 64 | 64 | 64 | – |
| O=C(Cc1ccccc1)N1CCN(c2nc3ccccc3s2)CC1 | 64 | 210 | 126 | – | – | 3.65 | 64 | 15.3 | 0.647 | 64 | 64 | 56 | 64 | 64 | 64 | 64 | 64 | 40 | 62.9 | 1.59 |

Continued, in another order:

| IC90 at 72 h [3] [µM] | CLint scaled at 0.5 h, 0.5 µM [4] [mL/min/kg] | microsomal CLint at 0.5 h, 0.5 µM [4] [µL/min/mg] | CLint scaled at 0.5 h, 0.5 µM [5] [mL/min/kg] | microsomal CLint at 0.5 h, 0.5 µM [5] [µL/min/mg] | logD [6] | IC90 at 72 h [7] [µM] | Papp [8] [×10⁻⁶ cm/s] | fraction unbound at 0.5 h, 0.5 µM [9] | IC50 [11] [µM] | IC90 [11] [µM] | IC50 [12] [µM] | IC90 [12] [µM] | IC50 [13] [µM] | IC90 [13] [µM] | Compound | IC50 [1] [µM] | IC50 [2] [µM] | IC50 [10] [µM] | IC90 [10] [µM] | selectivity ratio [14] |
| --- | --- | --- | --- | --- | --- | --- | --- | --- | --- | --- | --- | --- | --- | --- | --- | --- | --- | --- | --- | --- |
| 64 | < 35 | < 23 | 281 | 62.1 | 1.85 | 64 | 3.98 | 0.705 | 64 | 64 | 64 | 64 | 64 | 64 | O=C(CCc1nc2cccnc2n1CCO)Nc1ccccc1 | 64 | 64 | 64 | 64 | – |
| 64 | < 43.3 | < 23 | 140 | 25.1 | 2.03 | 64 | 5.23 | 0.571 | 64 | 64 | 64 | 64 | 64 | 64 | CCN(CCC(=O)Nc1cccnc1)C(=O)c1ccc(F)cc1 | 64 | 64 | 64 | 64 | – |
| 64 | 35 | 26.4 | 593 | 151 | 3.39 | 64 | 14.4 | 0.815 | 64 | 64 | 19.6 | 30.6 | 64 | 64 | COc1ccc2[nH]c(C3CCCN(C(=O)c4ccc(F)cc4)C3)cc2n1 (stereo not drawn) | 64 | 64 | 64 | 64 | – |
| 64 | 38.3 to 210 | 23 to 114 | 315 to 1070 | 64 to 196 | 2.94 to 3.02 | 64 | 0.584 to 2.12 | 0.584 to 0.649 | 64 | 64 | 64 | 64 | 64 | 64 | O=C(c1cccc(C(F)(F)F)n1)N1CCCC(c2cc3ncccc3[nH]2)C1 (stereo not drawn) | 64 | 64 | 14.8 to 26.1 | 59.3 to 60.5 | 2.42 to 4.35 |
| 64 | 468 | 91.3 | 19200 | 1270 | 2.3 | 64 | 16.5 | 0.211 | 64 | 64 | 64 | 64 | 64 | 64 | O=C(c1ccccc1)N1CCCC(c2cc3ncccn3n2)C1 (stereo not drawn) | 64 | 64 | 64 | 64 | – |
| 64 | < 33.3 | < 23 | 4520 | 1040 | 2.68 | 64 | 0.94 | 0.738 | 64 | 64 | 64 | 64 | 64 | 64 | O=C(c1ccccc1)N1CCC(c2cc3ncccc3[nH]2)CC1 | 64 | 64 | 22.4 | 56.1 | 2.86 |
| 64 | < 37.8 | < 23 | < 88 | < 23 | 2.3 | 64 | 0.45 | 0.661 to 0.839 | 64 | 64 | 64 | 64 | 64 | 64 | CC(C)(O)c1cc(C(=O)N2CCCC(c3cc4ncccc4[nH]3)C2)on1 (stereo not drawn) | 64 | 64 | 33.6 | 64 | 1.9 |
